From US8008298B2, “Pyrrolopyrazine kinase inhibitors” (Roche Palo Alto, priority 2008, dated 2011)

| Structure (SMILES) | melting point [°C] |
| --- | --- |
| CNC(=O)c1cccc(-c2cnc3[nH]cc(C(=O)C(C)(C)C)c3n2)c1 [Example I-129, 3-[7-(2,2-Dimethyl-propionyl)-5H-pyrrolo[2,3-b]pyrazin-2-yl]-N-methyl-benzamide] | 257 to 258 |
| COCc1ccc(-c2cnc3[nH]cc(C(=O)C(C)(C)C)c3n2)cc1 [Example I-132, 1-[2-(4-Methoxymethyl-phenyl)-5H-pyrrolo[2,3-b]pyrazin-7-yl]-2,2-dimethyl-propan-1-one] | 191 to 192 |
| COc1cccc(-c2cnc3[nH]cc(C(=O)C(C)(C)C)c3n2)c1 [Example I-134, 1-[2-(3-Methoxy-phenyl)-5H-pyrrolo[2,3-b]pyrazin-7-yl]-2,2-dimethyl-propan-1-one] | 197.4 to 198.8 |
| COCOc1cc(-c2cnc3[nH]cc(C(=O)C(C)(C)C)c3n2)cc(N2CCCC2)c1 [Example I-151, 1-[2-(3-Methoxymethoxy-5-pyrrolidin-1-yl-phenyl)-5H-pyrrolo[2,3-b]pyrazin-7-yl]-2,2-dimethyl-propan-1-one] | 229 to 230 |
| COc1cc(-c2cnc3[nH]cc(C(=O)C4(C)CCCCC4)c3n2)cc(N2CCSCC2)c1 [Example I-155, [2-(3-Methoxy-5-thiomorpholin-4-yl-phenyl)-5H-pyrrolo[2,3-b]pyrazin-7-yl]-(1-methyl-cyclohexyl)-methanone] | 212 to 214 |
| COc1ccc(COc2cccc(-c3cnc4[nH]cc(C(=O)NC(C)C)c4n3)c2)cc1 [Example I-229, 2-[3-(4-Methoxy-benzyloxy)-phenyl]-5H-pyrrolo[2,3-b]pyrazine-7-carboxylic acid isopropylamide] | 215 to 216 |
| CC(C)(C)C(=O)c1c[nH]c2ncc(-c3cccc(-c4ccccc4)c3)nc12 [Example I-335, 1-(2-Biphenyl-3-yl-5H-pyrrolo[2,3-b]pyrazin-7-yl)-2,2-dimethyl-propan-1-one] | 219.9 to 221.1 |
| CC(C)(C)OCc1cccc(-c2cnc3[nH]cc(C(=O)C(C)(C)C)c3n2)c1 [Example I-336, 1-[2-(3-tert-Butoxymethyl-phenyl)-5H-pyrrolo[2,3-b]pyrazin-7-yl]-2,2-dimethyl-propan-1-one] | 202 to 203 |
| CC(C)c1cccc(-c2cnc3[nH]cc(C(=O)C(C)(C)C)c3n2)c1 [Example I-337, 1-[2-(3-Isopropyl-phenyl)-5H-pyrrolo[2,3-b]pyrazin-7-yl]-2,2-dimethyl-propan-1-one] | 197 to 198 |
| CC(C)(C)C(=O)c1c[nH]c2ncc(-c3ccc(F)c(Cl)c3)nc12 [Example I-341, 1-[2-(3-Chloro-4-fluoro-phenyl)-5H-pyrrolo[2,3-b]pyrazin-7-yl]-2,2-dimethyl-propan-1-one] | 233 to 234 |
| CC(C)(C)C(=O)c1c[nH]c2ncc(-c3cccc(-c4cnc[nH]4)c3)nc12 [Example I-346, 1-{2-[3-(3H-Imidazol-4-yl)-phenyl]-5H-pyrrolo[2,3-b]pyrazin-7-yl}-2,2-dimethyl-propan-1-one] | 287 to 288 |
| CC(C)(C)C(=O)c1c[nH]c2ncc(-c3ccc(-c4ccccc4)cc3)nc12 [Example I-355, 1-(2-Biphenyl-4-yl-5H-pyrrolo[2,3-b]pyrazin-7-yl)-2,2-dimethyl-propan-1-one] | 275 to 277 |
| Cc1nnc(-c2ccc(-c3cnc4[nH]cc(C(=O)C(C)(C)C)c4n3)cc2)o1 [Example I-357, 2,2-Dimethyl-1-{2-[4-(5-methyl-[1,3,4]oxadiazol-2-yl)-phenyl]-5H-pyrrolo[2,3-b]pyrazin-7-yl}-propan-1-one] | > 300 |
| CC(C)(C)C(=O)c1c[nH]c2ncc(-c3ccc(OCCN4CCCCC4)cc3)nc12 [Example I-363, 2,2-Dimethyl-1-{2-[4-(2-piperidin-1-yl-ethoxy)-phenyl]-5H-pyrrolo[2,3-b]pyrazin-7-yl}-propan-1-one] | 207 to 208 |
| CCNC(=O)c1cccc(-c2cnc3[nH]cc(C(=O)C(C)(C)C)c3n2)c1 [Example I-365, 3-[7-(2,2-Dimethyl-propionyl)-5H-pyrrolo[2,3-b]pyrazin-2-yl]-N-ethyl-benzamide] | 232 to 233 |
| CC1(C(=O)c2c[nH]c3ncc(-c4ccc(OCCN5CCCCC5)cc4)nc23)CCCCC1 [Example I-368, (1-Methyl-cyclohexyl)-{2-[4-(2-piperidin-1-yl-ethoxy)-phenyl]-5H-pyrrolo[2,3-b]pyrazin-7-yl}-methanone] | 180 to 182 |
| COc1cc(-c2cnc3[nH]cc(C(=O)N4CCC(C)(C)C4)c3n2)cc(OC)c1OC [Example I-395, (3,3-Dimethyl-pyrrolidin-1-yl)-[2-(3,4,5-trimethoxy-phenyl)-5H-pyrrolo[2,3-b]pyrazin-7-yl]-methanone] | 228 to 230 |
| CC(C)(C)C(=O)c1c[nH]c2ncc(-c3cccc(NCCS(C)(=O)=O)c3)nc12 [Example I-407, 1-{2-[3-(2-Methanesulfonyl-ethylamino)-phenyl]-5H-pyrrolo[2,3-b]pyrazin-7-yl}-2,2-dimethyl-propan-1-one] | 205 to 206 |
| CC(=O)Nc1ccc(S(=O)(=O)Nc2cccc(-c3cnc4[nH]cc(C(=O)C(C)(C)C)c4n3)c2)cc1 [Example I-412, N-(4-{3-[7-(2,2-Dimethyl-propionyl)-5H-pyrrolo[2,3-b]pyrazin-2-yl]-phenylsulfamoyl}-phenyl)-acetamide] | 226 to 228 |
| CC(=O)Nc1ccc(S(=O)(=O)Nc2cc(-c3cnc4[nH]cc(C(=O)C(C)(C)C)c4n3)ccc2C)cc1 [Example I-415, N-(4-{5-[7-(2,2-Dimethyl-propionyl)-5H-pyrrolo[2,3-b]pyrazin-2-yl]-2-methyl-phenylsulfamoyl}-phenyl)-acetamide] | 274 to 276 |
| Cc1ccc(-c2cnc3[nH]cc(C(=O)C(C)(C)C)c3n2)cc1NS(=O)(=O)c1ccc(N)cc1 [Example I-416, 4-Amino-N-{5-[7-(2,2-dimethyl-propionyl)-5H-pyrrolo[2,3-b]pyrazin-2-yl]-2-methyl-phenyl}-benzenesulfonamide] | 264 to 266 |
| CC1(O)CCN(c2cccc(-c3cnc4[nH]cc(C(=O)C(C)(C)C)c4n3)c2)C1 (centres unmarked) [Example I-417, 1-{2-[3-(3-Hydroxy-3-methyl-pyrrolidin-1-yl)-phenyl]-5H-pyrrolo[2,3-b]pyrazin-7-yl}-2,2-dimethyl-propan-1-one] | 237 to 239 |

More lines, now with the values ahead:

| melting point [°C] | Structure (SMILES) |
| --- | --- |
| 143 to 144 | COCc1cccc(-c2cnc3[nH]cc(C(=O)C(C)(C)C)c3n2)c1 [Example I-130, 1-[2-(3-Methoxymethyl-phenyl)-5H-pyrrolo[2,3-b]pyrazin-7-yl]-2,2-dimethyl-propan-1-one] |
| 199.5 to 200.7 | COc1ccccc1-c1cnc2[nH]cc(C(=O)C(C)(C)C)c2n1 [Example I-133, 1-[2-(2-Methoxy-phenyl)-5H-pyrrolo[2,3-b]pyrazin-7-yl]-2,2-dimethyl-propan-1-one] |
| 227 to 228.5 | CC(C)(C)C(=O)c1c[nH]c2ncc(-c3cccc(C(=O)NC4CCCC4)c3)nc12 [Example I-136, N-Cyclopentyl-3-[7-(2,2-dimethyl-propionyl)-5H-pyrrolo[2,3-b]pyrazin-2-yl]-benzamide] |
| 267 to 268 | CC(C)(C)C(=O)c1c[nH]c2ncc(-c3cccc(O)c3)nc12 [Example I-141, 1-[2-(3-Hydroxy-phenyl)-5H-pyrrolo[2,3-b]pyrazin-7-yl]-2,2-dimethyl-propan-1-one] |
| 233 to 235 | CC(C)Oc1cc(-c2cnc3[nH]cc(C(=O)C(C)(C)C)c3n2)cc(N2CCCC2)c1 [Example I-152, 1-[2-(3-Isopropoxy-5-pyrrolidin-1-yl-phenyl)-5H-pyrrolo[2,3-b]pyrazin-7-yl]-2,2-dimethyl-propan-1-one] |
| 239 to 241 | CC(C)(C)C(=O)c1c[nH]c2ncc(-c3cccc(N4CCC5(CCSC5)C4)c3)nc12 (centres unmarked) [Example I-168, 2,2-Dimethyl-1-{2-[3-(2-thia-7-aza-spiro[4.4]non-7-yl)-phenyl]-5H-pyrrolo[2,3-b]pyrazin-7-yl}-propan-1-one] |
| 187 to 190 | COCC1CCCN1c1cccc(-c2cnc3[nH]cc(C(=O)NC(C)C)c3n2)c1 (centres unmarked) [Example I-230, 2-[3-(2-Methoxymethyl-pyrrolidin-1-yl)-phenyl]-5H-pyrrolo[2,3-b]pyrazine-7-carboxylic acid isopropylamide] |
| 260.9 to 264.4 | Cc1nnc(-c2cccc(-c3cnc4[nH]cc(C(=O)C(C)(C)C)c4n3)c2)o1 [Example I-325, 2,2-Dimethyl-1-{2-[3-(5-methyl-[1,3,4]oxadiazol-2-yl)-phenyl]-5H-pyrrolo[2,3-b]pyrazin-7-yl}-propan-1-one] |
| 234.9 to 236.1 | Cc1cc(-c2cnc3[nH]cc(C(=O)C(C)(C)C)c3n2)cc(C(C)(C)C)c1 [Example I-334, 1-[2-(3-tert-Butyl-5-methyl-phenyl)-5H-pyrrolo[2,3-b]pyrazin-7-yl]-2,2-dimethyl-propan-1-one] |
| 188 to 190 | CC(C)(C)C(=O)c1c[nH]c2ncc(-c3cccc(C4=CCCCC4)c3)nc12 [Example I-352, 1-[2-(3-Cyclohex-1-enyl-phenyl)-5H-pyrrolo[2,3-b]pyrazin-7-yl]-2,2-dimethyl-propan-1-one] |
| > 300 | CC(C)(C)C(=O)c1c[nH]c2ncc(-c3cccc(-c4cn[nH]c4)c3)nc12 [Example I-369, 2,2-Dimethyl-1-{2-[3-(1H-pyrazol-4-yl)-phenyl]-5H-pyrrolo[2,3-b]pyrazin-7-yl}-propan-1-one] |
| 245 to 248 | CC(C)(C)C(=O)c1c[nH]c2ncc(-c3cccc(N4CCC(O)C4)c3)nc12 (centres unmarked) [Example I-402, 1-{2-[3-(3-Hydroxy-pyrrolidin-1-yl)-phenyl]-5H-pyrrolo[2,3-b]pyrazin-7-yl}-2,2-dimethyl-propan-1-one] |
| 237.8 to 238.4 | COc1cc(-c2cnc3[nH]cc(C(=O)O)c3n2)cc(OC)c1OC [Example I-490, 2-(3,4,5-Trimethoxy-phenyl)-5H-pyrrolo[2,3-b]pyrazine-7-carboxylic acid] |
